PubChem BioAssay AID330 (DTP/NCI, 2004)
Several values for one entry are separate records, joined by “and”; a condition that tells them apart may be missing. Equal values may be shown once. Toxic doses and inconclusive results are not listed.

Tested on: P388 leukemia ip, CD2F1 mice, survival T/C
Assay: NCI In Vivo Anticancer Drug Screen. Data for tumor model P388 Leukemia (intraperitoneal) in CD2F1 (CDF1) mice
Details: endpoint: median survival time, higher = longer survival
How it was run: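 Mice carrying the transplanted tumor received test compound or vehicle. Survival was recorded in each group, and the value is the treated-group measurement divided by that of the vehicle-treated control group.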

[1] = dose: 60.0 mg/kg/injection, schedule: Q01DX005 (ip), vehicle: Klucel (hydroxypropylcellulose) (HPC)
[2] = dose: 120.0 mg/kg/injection, schedule: Q01DX005 (ip), vehicle: Klucel (hydroxypropylcellulose) (HPC)
[3] = dose: 240.0 mg/kg/injection, schedule: Q01DX005 (ip), vehicle: Klucel (hydroxypropylcellulose) (HPC)
[4] = dose: 50.0 mg/kg/injection, schedule: Q01DX005 (ip), vehicle: saline with Tween-80
[5] = dose: 100.0 mg/kg/injection, schedule: Q01DX005 (ip), vehicle: saline with Tween-80
[6] = dose: 100.0 mg/kg/injection, schedule: Q04DX003 (ip), vehicle: saline with Tween-80
[7] = dose: 200.0 mg/kg/injection, schedule: Q04DX003 (ip), vehicle: saline with Tween-80
[8] = dose: 400.0 mg/kg/injection, schedule: Q04DX003 (ip), vehicle: saline with Tween-80
[9] = dose: 6.25 mg/kg/injection, schedule: Q01DX009 (ip), vehicle: saline
[10] = dose: 12.5 mg/kg/injection, schedule: Q01DX009 (ip), vehicle: saline
[11] = dose: 25.0 mg/kg/injection, schedule: Q01DX009 (ip), vehicle: other
[12] = dose: 50.0 mg/kg/injection, schedule: Q01DX009 (ip), vehicle: saline
[13] = dose: 100.0 mg/kg/injection, schedule: Q01DX009 (ip), vehicle: saline
[14] = dose: 200.0 mg/kg/injection, schedule: Q01DX005 (ip), vehicle: saline with Tween-80
[15] = dose: 50.0 mg/kg/injection, schedule: Q01DX005 (ip), vehicle: Klucel (hydroxypropylcellulose) (HPC)
[16] = dose: 100.0 mg/kg/injection, schedule: Q01DX005 (ip), vehicle: Klucel (hydroxypropylcellulose) (HPC)
[17] = dose: 200.0 mg/kg/injection, schedule: Q01DX005 (ip), vehicle: Klucel (hydroxypropylcellulose) (HPC)
[18] = dose: 50.0 mg/kg/injection, schedule: Q01DX009 (ip), vehicle: Klucel (hydroxypropylcellulose) (HPC)
[19] = dose: 100.0 mg/kg/injection, schedule: Q01DX009 (ip), vehicle: Klucel (hydroxypropylcellulose) (HPC)

COC(=O)C1=COC(OC2OC(CO)C(O)C(O)C2O)C2C(C)C(O)C(OC(=O)/C=C/c3ccc(OC)cc3)C12 (stereo unspecified)
T/C (dose: 9.38 mg/kg/injection, schedule: Q01DX005 (ip), vehicle: Klucel (hydroxypropylcellulose) (HPC)): 96 % of control | T/C (dose: 37.5 mg/kg/injection, schedule: Q01DX005 (ip), vehicle: Klucel (hydroxypropylcellulose) (HPC)): 88 % of control | T/C [1]: 93 % of control | T/C (dose: 75.0 mg/kg/injection, schedule: Q01DX005 (ip), vehicle: Klucel (hydroxypropylcellulose) (HPC)): 88 % of control | T/C [2]: 93 % of control | T/C [3]: 86 % of control

CC(C(=O)c1ccc(Cl)cc1)C1=NC2NN(c3ccccc3)C(=O)C2=C1C(C)C(=O)c1ccc(Cl)cc1 (stereo unspecified)
T/C (dose: 60.0 mg/kg/injection, schedule: Q01DX005 (ip), vehicle: saline with Tween-80): 99 % of control | T/C (dose: 120.0 mg/kg/injection, schedule: Q01DX005 (ip), vehicle: saline with Tween-80): 101 % of control | T/C (dose: 240.0 mg/kg/injection, schedule: Q01DX005 (ip), vehicle: saline with Tween-80): 100 % of control

C=CCNC(=S)N/N=C(/c1ccccn1)C(C)C
T/C [4]: 103 % of control | T/C [5]: 109 % of control

COC(=O)C(NC(N)=O)SC (stereo unspecified)
T/C (dose: 50.0 mg/kg/injection, schedule: Q04DX003 (ip), vehicle: saline with Tween-80): 96 % of control | T/C [6]: 100 % of control | T/C [7]: 99 % of control

CCSC/C(=N\Nc1ccc([N+](=O)[O-])cc1[N+](=O)[O-])c1ccccc1
T/C [6]: 100 % of control | T/C [7]: 95 % of control | T/C [8]: 90 % of control

CCCCC[N+]1(CC)CCCCC1
T/C (dose: 3.12 mg/kg/injection, schedule: Q01DX009 (ip), vehicle: saline): 104 % of control | T/C [9]: 106 % of control | T/C [10]: 104 % of control

N=C(N)CCCCCCCCC(=N)N
T/C (dose: 0.78 mg/kg/injection, schedule: Q01DX009 (ip), vehicle: saline): 98 % of control and 111 % of control and 118 % of control | T/C (dose: 1.5 mg/kg/injection, schedule: Q01DX009 (ip), vehicle: saline): 116 % of control | T/C (dose: 1.56 mg/kg/injection, schedule: Q01DX009 (ip), vehicle: saline): 112 % of control and 114 % of control | T/C [9]: 123 % of control | T/C [10]: 107 % of control and 116 % of control and 119 % of control

CC(C)C[NH-].CC(C)C[NH-].O.O.[Cl][Pt+2][Cl]
T/C (dose: 11.0 mg/kg/injection, schedule: Q01DX009 (ip), vehicle: saline with Tween-80): 167 % of control | T/C (dose: 12.5 mg/kg/injection, schedule: Q01DX009 (ip), vehicle: other): 181 % of control | T/C (dose: 16.5 mg/kg/injection, schedule: Q01DX009 (ip), vehicle: saline with Tween-80): 180 % of control | T/C [11]: 200 % of control | T/C (dose: 25.0 mg/kg/injection, schedule: Q01DX009 (ip), vehicle: saline with Tween-80): 218 % of control

CC(=O)CCC1=C(O)C(C)=C(C)C(=O)C1=O
T/C [1]: 103 % of control | T/C [2]: 115 % of control | T/C [3]: 109 % of control

Cc1ccc(S(=O)(=O)C(CC(=O)CCN2CCCCC2)c2ccccc2)cc1 (stereo unspecified)
T/C [12]: 102 % of control | T/C [13]: 96 % of control

CCOC(OCC)c1ccc(-n2c(N)c(C#N)cnc2=S)c2c1OC2=NC=C(C#N)C#N
T/C [12]: 112 % of control | T/C [13]: 102 % of control | T/C (dose: 200.0 mg/kg/injection, schedule: Q01DX009 (ip), vehicle: saline): 100 % of control

CC1CCC(n2cnc3c(=S)nc[nH]c32)O1 (stereo unspecified)
T/C (dose: 66.0 mg/kg/injection, schedule: Q01DX009 (ip), vehicle: saline with Tween-80): 104 % of control | T/C (dose: 100.0 mg/kg/injection, schedule: Q01DX009 (ip), vehicle: saline with Tween-80): 113 % of control | T/C [6]: 109 % of control | T/C (dose: 150.0 mg/kg/injection, schedule: Q01DX009 (ip), vehicle: saline with Tween-80): 90 % of control | T/C (dose: 200.0 mg/kg/injection, schedule: Q01DX009 (ip), vehicle: saline with Tween-80): 100 % of control | T/C [7]: 118 % of control | T/C [8]: 118 % of control

O=C(O)C1=C(C(=O)O)C2c3ccccc3C1c1ccccc12
T/C [4]: 99 % of control | T/C [5]: 90 % of control | T/C [14]: 103 % of control

CC1(C)N=C(N)N=C(N)N1c1ccc(OCCOc2ccc(S(=O)(=O)F)cc2)c(Cl)c1
T/C (dose: 12.5 mg/kg/injection, schedule: Q04DX003 (ip), vehicle: saline): 159 % of control | T/C (dose: 25.0 mg/kg/injection, schedule: Q04DX003 (ip), vehicle: saline): 181 % of control and 185 % of control | T/C (dose: 50.0 mg/kg/injection, schedule: Q04DX003 (ip), vehicle: saline): 181 % of control and 185 % of control | T/C [6]: 175 % of control | T/C (dose: 100.0 mg/kg/injection, schedule: Q04DX003 (ip), vehicle: saline): 190 % of control and 200 % of control | T/C (dose: 132.0 mg/kg/injection, schedule: Q04DX003 (ip), vehicle: saline with Tween-80): 162 % of control | T/C [7]: 185 % of control | T/C (dose: 200.0 mg/kg/injection, schedule: Q04DX003 (ip), vehicle: saline): 109 % of control

COC(=O)C1=C(C(=O)OC)P2(C)(C)ON(c3ccccc3)C(C(=O)c3ccccc3)N2C1(c1ccccc1)c1ccccc1 (stereo unspecified)
T/C [15]: 100 % of control | T/C [16]: 93 % of control | T/C [17]: 98 % of control

COc1ccc(C(=O)CSC(=S)N2CCCCC2)cc1
T/C [18]: 86 % of control | T/C [19]: 86 % of control

O=C1C2CC3OC3CC2C(=O)N1CCN1C(=O)C2CC3OC3CC2C1=O (stereo unspecified)
T/C [4]: 100 % of control | T/C [5]: 104 % of control | T/C [14]: 104 % of control

CCOC(=O)c1cc(=O)[nH]c2cc(N)ccc12
T/C [1]: 97 % of control | T/C [2]: 93 % of control | T/C [3]: 91 % of control

CN(C)CCCN1C[C@H]2CC[C@@](C)(C1)C2(C)C
T/C [4]: 105 % of control | T/C [5]: 107 % of control | T/C [14]: 105 % of control

O=[N+]([O-])c1cnc[nH]1
T/C (dose: 25.0 mg/kg/injection, schedule: Q01DX009 (ip), vehicle: Klucel (hydroxypropylcellulose) (HPC)): 105 % of control | T/C [18]: 100 % of control and 101 % of control | T/C [19]: 100 % of control and 105 % of control | T/C (dose: 200.0 mg/kg/injection, schedule: Q01DX009 (ip), vehicle: Klucel (hydroxypropylcellulose) (HPC)): 99 % of control and 100 % of control | T/C (dose: 360.0 mg/kg/injection, schedule: Q01DX001 (ip), vehicle: saline with Tween-80): 95 % of control | T/C (dose: 600.0 mg/kg/injection, schedule: Q01DX001 (ip), vehicle: saline with Tween-80): 100 % of control and 92 % of control | T/C (dose: 1000.0 mg/kg/injection, schedule: Q01DX001 (ip), vehicle: saline with Tween-80): 99 % of control and 106 % of control

C=CC(Br)CCCBr (stereo unspecified)
T/C (dose: 12.5 mg/kg/injection, schedule: Q04DX002 (ip), vehicle: saline with Tween-80): 106 % of control | T/C (dose: 25.0 mg/kg/injection, schedule: Q04DX002 (ip), vehicle: saline with Tween-80): 112 % of control | T/C (dose: 50.0 mg/kg/injection, schedule: Q04DX002 (ip), vehicle: saline with Tween-80): 101 % of control | T/C (dose: 100.0 mg/kg/injection, schedule: Q04DX002 (ip), vehicle: saline with Tween-80): 104 % of control

COc1cc(C(c2cc3c(cc2O)OCO3)N2CCCC2)cc(OC)c1OC (stereo unspecified)
T/C [1]: 118 % of control | T/C [2]: 106 % of control | T/C [3]: 101 % of control

CCC1(C)C(=O)SC(=S)N1C (stereo unspecified)
T/C [15]: 101 % of control | T/C [16]: 97 % of control | T/C [17]: 103 % of control

COc1ccc(OC)c(CC(C(C)=O)C(C)=O)c1
T/C [11]: 100 % of control | T/C (dose: 50.0 mg/kg/injection, schedule: Q01DX009 (ip), vehicle: other): 105 % of control | T/C (dose: 100.0 mg/kg/injection, schedule: Q01DX009 (ip), vehicle: other): 106 % of control | T/C (dose: 200.0 mg/kg/injection, schedule: Q01DX009 (ip), vehicle: other): 108 % of control | T/C (dose: 400.0 mg/kg/injection, schedule: Q01DX009 (ip), vehicle: other): 116 % of control

Cc1ccc(C(=O)C(CN(C)C)CN(C)C)cc1C
T/C (dose: 3.12 mg/kg/injection, schedule: Q01DX005 (ip), vehicle: saline): 109 % of control | T/C (dose: 6.25 mg/kg/injection, schedule: Q01DX005 (ip), vehicle: saline): 119 % of control and 124 % of control | T/C (dose: 25.0 mg/kg/injection, schedule: Q01DX005 (ip), vehicle: saline): 114 % of control

Cc1ccc2c(NCCCCCCCCNc3c4ccccc4nc4cc(C)ccc34)c3ccccc3nc2c1
T/C (dose: 2.5 mg/kg/injection, schedule: Q01DX009 (ip), vehicle: water): 150 % of control
